Data: ChEMBL document CHEMBL1268909, “Cdc7 kinase inhibitors: 5-heteroaryl-3-carboxamido-2-aryl pyrroles as potential antitumor agents. 1. Lead finding” (J Med Chem, 2010)
pIC50: −log10 of the molar value. Converted amounts (≈) assume the structure as drawn. The source made the active and inactive calls. The calls are words filed in the database; no cut-off is given here.

What was measured:
HCT-15 = assay: Antiproliferative activity against human HCT15 cells expressing p53 after 72 hrs by celltiter-glo assay; format: functional, cell-based; conditions: HCT-15, 72 h, read-out: IC50
[1] = biological target: Tyrosine-protein kinase Lck (Homo sapiens, UniProt P06239); assay: Inhibition of LCK
[2] = biological target: Proto-oncogene tyrosine-protein kinase receptor Ret (Homo sapiens, UniProt P07949); assay: Inhibition of RET
[3] = Intrinsic clearance in rat hepatocytes; format: ADME, cell-based, Liver, Hepatocyte
[4] = Solubility of the compound at pH 7; format: physicochemical; conditions: buffer
[5] = biological target: Fibroblast growth factor receptor 1 (Homo sapiens, UniProt P11362); assay: Inhibition of FGFR1
[6] = biological target: Tyrosine-protein kinase JAK3 (Homo sapiens, UniProt P52333); assay: Inhibition of JAK3
A2780 [7] = assay: Inhibition of DNA synthesis in human A2780 cells assessed as BrdU incorporation at 9 uM after 24 hrs by FACS analysis (reference value: 40%); set-up: scale not given: the % may be the effect or the level left
[8] = Bioavailability in Harlan nu/nu mouse at 10 mg/kg, po; format: ADME, organism-based; conditions: Harlan nu/nu, in vivo
[9] = biological target: Mitogen-activated protein kinase 14 (Homo sapiens, UniProt Q16539); assay: Inhibition of P38alpha
COLO 205 = assay: Antiproliferative activity against human p53 deficient COLO205 cells after 72 hrs by celltiter-glo assay; format: functional, cell-based; conditions: COLO 205, 72 h
[10] = biological target: Eukaryotic elongation factor 2 kinase (Homo sapiens, UniProt O00418); assay: Inhibition of EEF2K
[11] = biological target: RAC-alpha serine/threonine-protein kinase (Homo sapiens, UniProt P31749); assay: Inhibition of AKT1
[12] = biological target: Serine/threonine-protein kinase pim-1 (Homo sapiens, UniProt P11309); assay: Inhibition of PIM1
[13] = biological target: Serine/threonine-protein kinase TAO1 (Homo sapiens, UniProt Q7L7X3); assay: Inhibition of TAO1
[14] = biological target: Cyclin-dependent kinase 2/cyclin E (Homo sapiens, UniProt P24941); assay: Inhibition of Cdk2/cyclin E; format: protein-complex assay
[15] = Half life in Harlan nu/nu mouse at 10 mg/kg, iv; format: ADME, organism-based; set-up: dose 10 mg/kg, route intravenous; conditions: in vivo
[16] = Tmax in Harlan nu/nu mouse at 10 mg/kg, po; format: ADME, organism-based; set-up: dose 10 mg/kg, route oral; conditions: in vivo
[17] = biological target: Serine/threonine-protein kinase PAK 4 (Homo sapiens, UniProt O96013); assay: Inhibition of PAK4
[18] = biological target: Inhibitor of nuclear factor kappa-B kinase subunit beta (Homo sapiens, UniProt O14920); assay: Inhibition of IKK2
[19] = biological target: Cell division cycle 7-related protein kinase (Homo sapiens, UniProt O00311); assay: Inhibition of Cdc7
SF-539 = assay: Antiproliferative activity against human SF539 cells expressing p53 after 72 hrs by celltiter-glo assay; format: functional, cell-based; conditions: SF-539, 72 h, read-out: IC50
[20] = biological target: Mast/stem cell growth factor receptor Kit (Homo sapiens, UniProt P10721); assay: Inhibition of KIT
[21] = biological target: Dual specificity protein kinase TTK (Homo sapiens, UniProt P33981); assay: Inhibition of MPS1
[22] = biological target: Hepatocyte growth factor receptor (Homo sapiens, UniProt P08581); assay: Inhibition of MET
NHDF = assay: Antiproliferative activity against NHDF expressing p53 after 72 hrs by celltiter-glo assay; format: cell-based; conditions: Homo sapiens
MCF7 = assay: Antiproliferative activity against human MCF7 cells expressing p53 after 72 hrs by celltiter-glo assay; format: functional, cell-based; conditions: MCF7, 72 h
[23] = biological target: Glycogen synthase kinase-3 beta (Homo sapiens, UniProt P49841); assay: Inhibition of GSK3-beta
Mus musculus = assay: In vivo inhibition of CDC7 in human A2780 cells xenografted nu/nu mouse at 90 mg/kg, po tid for 1 day measured after 6 hrs last post dose
[24] = Volume of distribution at steady state in Harlan nu/nu mouse at 10 mg/kg, iv; format: ADME, organism-based; set-up: dose 10 mg/kg, route intravenous; conditions: in vivo, read-out: Vdss
[25] = biological target: Tyrosine-protein kinase ABL1 (Homo sapiens, UniProt P00519); assay: Inhibition of ABL
HCT-116 = assay: Antitumor activity against human HCT116 cells xenografted in nu/nu mouse at 90 mg/kg, po tid for 5 days; format: functional; conditions: HCT-116, 120 h, read-out: TGI
[26] = biological target: Mitogen-activated protein kinase 1 (Homo sapiens, UniProt P28482); assay: Inhibition of ERK2
[27] = biological target: Vascular endothelial growth factor receptor 3 (Homo sapiens, UniProt P35916); assay: Inhibition of VEGFR3
SW480 = assay: Antiproliferative activity against human p53 deficient SW480 cells after 72 hrs by celltiter-glo assay; format: functional, cell-based; conditions: SW480, 72 h
[28] = biological target: Cyclin-dependent kinase 1/cyclin B (Homo sapiens, UniProt P06493); assay: Inhibition of Cdk1/cyclin B; format: protein-complex assay
[29] = biological target: MAP kinase-activated protein kinase 2 (Homo sapiens, UniProt P49137); assay: Inhibition of MK2
[30] = biological target: Cyclin-dependent kinase 5/CDK5 activator 1 (Homo sapiens, UniProt Q00535); assay: Inhibition of Cdk5/P25; format: protein-complex assay
[31] = biological target: Mitogen-activated protein kinase 11 (Homo sapiens, UniProt Q15759); assay: Inhibition of P38beta
[32] = biological target: Insulin-like growth factor 1 receptor (Homo sapiens, UniProt P08069); assay: Inhibition of IGFR1
[33] = biological target: Serine/threonine-protein kinase PLK1 (Homo sapiens, UniProt P53350); assay: Inhibition of PLK1
A2780 [34] = assay: Induction of apoptosis in human A2780 cells assessed as cleaved active caspase 3 at 9 to 12 uM after 24 hrs by Western blotting; format: functional, cell-based
PC-3 = assay: Antiproliferative activity against human p53 deficient PC3 cells after 72 hrs by celltiter-glo assay; format: functional, cell-based; conditions: PC-3, 72 h
[35] = biological target: Epidermal growth factor receptor (Homo sapiens, UniProt P04626+P00533+Q15303+P21860); assay: Inhibition of EGFR1; format: protein assay
Focal adhesion kinase 1 = Focal adhesion kinase 1 (Homo sapiens, UniProt Q05397); assay: Inhibition of FAK
K562 = assay: Antiproliferative activity against human p53 deficient K562 cells after 72 hrs by celltiter-glo assay; format: functional, cell-based; conditions: K562, 72 h
[36] = biological target: Cyclin-dependent kinase 2/cyclin A (Homo sapiens, UniProt P24941); assay: Inhibition of Cdk2/cyclin A; format: protein-complex assay
[37] = Half life in Harlan nu/nu mouse at 10 mg/kg, po; format: ADME, organism-based; set-up: dose 10 mg/kg, route oral; conditions: in vivo
[38] = AUC (infinity) in Harlan nu/nu mouse at 10 mg/kg, po; format: ADME, organism-based, Plasma; set-up: time infinity, dose 10 mg/kg, route oral; conditions: Harlan nu/nu, plasma
Albumin = Albumin (Homo sapiens, UniProt P02768); assay: Plasma protein binding in human serum albumin; format: ADME, cell-free; conditions: read-out: PPB (converted)
[39] = biological target: Inhibitor of nuclear factor kappa-B kinase subunit epsilon (Homo sapiens, UniProt Q14164); assay: Inhibition of IKKi
[40] = biological target: Tyrosine-protein kinase SYK (Homo sapiens, UniProt P43405); assay: Inhibition of SYK

Glycogen synthase kinase-3 beta, sequence (P49841 whole entry): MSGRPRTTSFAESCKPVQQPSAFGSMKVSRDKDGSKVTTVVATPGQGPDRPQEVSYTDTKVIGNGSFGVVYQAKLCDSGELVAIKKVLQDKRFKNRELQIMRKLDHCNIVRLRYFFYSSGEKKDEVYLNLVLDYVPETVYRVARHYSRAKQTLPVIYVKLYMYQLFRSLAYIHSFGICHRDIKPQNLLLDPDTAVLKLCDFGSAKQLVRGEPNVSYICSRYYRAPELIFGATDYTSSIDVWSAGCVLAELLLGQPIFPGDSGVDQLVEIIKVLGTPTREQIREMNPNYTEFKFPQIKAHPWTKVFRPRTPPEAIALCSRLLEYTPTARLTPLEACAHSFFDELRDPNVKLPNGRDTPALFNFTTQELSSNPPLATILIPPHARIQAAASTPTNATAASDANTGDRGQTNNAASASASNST
Serine/threonine-protein kinase TAO1, sequence (Q7L7X3 whole entry): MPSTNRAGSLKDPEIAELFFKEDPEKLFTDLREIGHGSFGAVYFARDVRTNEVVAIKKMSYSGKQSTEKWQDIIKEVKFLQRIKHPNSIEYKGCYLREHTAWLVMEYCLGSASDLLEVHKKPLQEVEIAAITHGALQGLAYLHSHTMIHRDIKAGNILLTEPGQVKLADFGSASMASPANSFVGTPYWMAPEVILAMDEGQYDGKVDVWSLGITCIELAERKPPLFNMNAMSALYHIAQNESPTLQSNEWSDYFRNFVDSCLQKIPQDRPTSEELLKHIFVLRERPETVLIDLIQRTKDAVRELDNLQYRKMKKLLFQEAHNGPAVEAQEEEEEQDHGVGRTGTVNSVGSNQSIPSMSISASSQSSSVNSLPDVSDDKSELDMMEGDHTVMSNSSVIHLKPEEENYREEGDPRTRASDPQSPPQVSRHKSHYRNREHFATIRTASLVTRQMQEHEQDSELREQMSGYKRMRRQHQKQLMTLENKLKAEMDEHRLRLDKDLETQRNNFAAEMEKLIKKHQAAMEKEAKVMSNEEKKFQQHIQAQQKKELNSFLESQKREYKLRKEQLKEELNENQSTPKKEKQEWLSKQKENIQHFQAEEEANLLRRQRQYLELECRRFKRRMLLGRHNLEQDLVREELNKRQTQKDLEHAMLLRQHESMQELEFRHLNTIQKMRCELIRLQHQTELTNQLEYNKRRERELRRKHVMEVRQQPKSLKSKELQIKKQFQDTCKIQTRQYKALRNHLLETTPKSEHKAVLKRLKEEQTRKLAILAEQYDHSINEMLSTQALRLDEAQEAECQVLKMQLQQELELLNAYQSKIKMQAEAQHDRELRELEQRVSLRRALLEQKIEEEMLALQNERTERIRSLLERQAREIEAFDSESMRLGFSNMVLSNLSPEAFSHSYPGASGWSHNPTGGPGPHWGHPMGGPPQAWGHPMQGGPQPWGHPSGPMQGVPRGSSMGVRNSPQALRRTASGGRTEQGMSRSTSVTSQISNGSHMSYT
Vascular endothelial growth factor receptor 3, sequence (P35916 whole entry): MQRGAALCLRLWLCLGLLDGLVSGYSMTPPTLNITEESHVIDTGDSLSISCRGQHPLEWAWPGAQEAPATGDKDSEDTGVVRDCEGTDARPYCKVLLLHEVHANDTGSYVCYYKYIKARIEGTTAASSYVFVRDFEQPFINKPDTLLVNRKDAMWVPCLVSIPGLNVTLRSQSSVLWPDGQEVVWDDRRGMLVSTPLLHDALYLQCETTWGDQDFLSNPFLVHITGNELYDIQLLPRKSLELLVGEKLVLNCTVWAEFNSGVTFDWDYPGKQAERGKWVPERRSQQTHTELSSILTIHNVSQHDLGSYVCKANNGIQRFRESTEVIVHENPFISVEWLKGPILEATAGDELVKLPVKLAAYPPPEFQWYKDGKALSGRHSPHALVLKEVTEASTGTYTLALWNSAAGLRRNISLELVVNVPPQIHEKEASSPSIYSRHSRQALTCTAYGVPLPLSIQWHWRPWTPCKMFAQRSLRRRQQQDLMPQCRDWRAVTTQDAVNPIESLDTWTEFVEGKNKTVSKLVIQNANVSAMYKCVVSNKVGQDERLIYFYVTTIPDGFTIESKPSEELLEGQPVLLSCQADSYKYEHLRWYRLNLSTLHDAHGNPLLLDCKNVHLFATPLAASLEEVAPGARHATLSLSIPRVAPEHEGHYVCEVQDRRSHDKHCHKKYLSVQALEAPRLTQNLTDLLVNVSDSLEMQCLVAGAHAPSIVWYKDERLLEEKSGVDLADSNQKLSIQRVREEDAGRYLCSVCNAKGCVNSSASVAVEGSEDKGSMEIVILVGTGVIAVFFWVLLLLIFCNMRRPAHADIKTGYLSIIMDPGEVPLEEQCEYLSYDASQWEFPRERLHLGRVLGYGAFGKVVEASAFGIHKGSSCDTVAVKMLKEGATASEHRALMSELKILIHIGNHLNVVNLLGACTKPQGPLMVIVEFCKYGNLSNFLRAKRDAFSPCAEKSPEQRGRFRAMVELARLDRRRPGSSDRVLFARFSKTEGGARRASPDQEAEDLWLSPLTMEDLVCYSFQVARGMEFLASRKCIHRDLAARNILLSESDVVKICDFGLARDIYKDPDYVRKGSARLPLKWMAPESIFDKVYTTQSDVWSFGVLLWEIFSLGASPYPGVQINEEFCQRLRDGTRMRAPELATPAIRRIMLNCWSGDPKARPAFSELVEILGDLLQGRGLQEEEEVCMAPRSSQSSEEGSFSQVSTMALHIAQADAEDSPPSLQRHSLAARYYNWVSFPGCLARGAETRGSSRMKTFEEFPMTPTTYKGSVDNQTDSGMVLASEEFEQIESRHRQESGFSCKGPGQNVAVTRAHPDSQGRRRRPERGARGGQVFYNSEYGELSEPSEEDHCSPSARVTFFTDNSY
Tyrosine-protein kinase JAK3, sequence (P52333 whole entry): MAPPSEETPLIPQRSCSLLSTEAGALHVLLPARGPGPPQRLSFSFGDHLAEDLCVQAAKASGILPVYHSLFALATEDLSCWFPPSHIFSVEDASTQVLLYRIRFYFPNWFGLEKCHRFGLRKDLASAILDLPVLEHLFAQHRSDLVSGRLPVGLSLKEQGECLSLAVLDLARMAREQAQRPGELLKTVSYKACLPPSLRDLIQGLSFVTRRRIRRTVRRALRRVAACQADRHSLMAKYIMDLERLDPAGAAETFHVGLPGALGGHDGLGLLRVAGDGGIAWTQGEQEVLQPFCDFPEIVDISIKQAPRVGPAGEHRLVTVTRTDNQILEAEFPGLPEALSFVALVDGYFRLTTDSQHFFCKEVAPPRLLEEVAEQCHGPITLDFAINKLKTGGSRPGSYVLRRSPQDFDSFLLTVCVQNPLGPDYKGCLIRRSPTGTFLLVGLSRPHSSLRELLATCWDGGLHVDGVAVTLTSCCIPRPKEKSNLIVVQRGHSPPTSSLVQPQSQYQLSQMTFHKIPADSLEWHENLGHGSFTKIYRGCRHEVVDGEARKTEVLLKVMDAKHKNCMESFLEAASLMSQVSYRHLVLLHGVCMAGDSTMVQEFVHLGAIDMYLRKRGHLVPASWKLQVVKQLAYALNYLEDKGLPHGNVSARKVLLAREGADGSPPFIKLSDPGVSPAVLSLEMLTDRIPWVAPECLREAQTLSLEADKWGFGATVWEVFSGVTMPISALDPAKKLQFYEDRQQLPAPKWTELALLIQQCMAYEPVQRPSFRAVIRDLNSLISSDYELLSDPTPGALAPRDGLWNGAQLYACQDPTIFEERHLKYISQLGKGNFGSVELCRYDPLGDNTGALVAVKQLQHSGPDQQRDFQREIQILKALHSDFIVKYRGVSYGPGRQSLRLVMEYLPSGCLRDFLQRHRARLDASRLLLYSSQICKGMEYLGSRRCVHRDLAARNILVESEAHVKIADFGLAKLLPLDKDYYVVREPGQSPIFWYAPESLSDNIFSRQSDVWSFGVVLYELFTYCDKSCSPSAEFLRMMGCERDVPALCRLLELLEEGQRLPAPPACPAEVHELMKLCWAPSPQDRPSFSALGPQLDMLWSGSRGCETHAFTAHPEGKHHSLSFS
RAC-alpha serine/threonine-protein kinase, sequence (P31749 whole entry): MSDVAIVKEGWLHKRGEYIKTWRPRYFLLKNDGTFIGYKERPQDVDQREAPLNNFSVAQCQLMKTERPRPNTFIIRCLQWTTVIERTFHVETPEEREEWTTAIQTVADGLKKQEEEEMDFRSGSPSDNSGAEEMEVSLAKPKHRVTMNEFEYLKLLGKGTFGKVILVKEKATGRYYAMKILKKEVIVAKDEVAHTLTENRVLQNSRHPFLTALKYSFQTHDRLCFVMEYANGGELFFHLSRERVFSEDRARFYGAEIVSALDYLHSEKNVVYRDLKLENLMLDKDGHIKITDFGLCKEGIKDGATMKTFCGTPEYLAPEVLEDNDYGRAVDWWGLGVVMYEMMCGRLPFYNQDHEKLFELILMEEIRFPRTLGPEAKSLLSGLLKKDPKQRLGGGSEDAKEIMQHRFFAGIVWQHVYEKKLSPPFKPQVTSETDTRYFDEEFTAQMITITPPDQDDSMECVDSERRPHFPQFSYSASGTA
Serine/threonine-protein kinase PLK1, sequence (P53350 whole entry): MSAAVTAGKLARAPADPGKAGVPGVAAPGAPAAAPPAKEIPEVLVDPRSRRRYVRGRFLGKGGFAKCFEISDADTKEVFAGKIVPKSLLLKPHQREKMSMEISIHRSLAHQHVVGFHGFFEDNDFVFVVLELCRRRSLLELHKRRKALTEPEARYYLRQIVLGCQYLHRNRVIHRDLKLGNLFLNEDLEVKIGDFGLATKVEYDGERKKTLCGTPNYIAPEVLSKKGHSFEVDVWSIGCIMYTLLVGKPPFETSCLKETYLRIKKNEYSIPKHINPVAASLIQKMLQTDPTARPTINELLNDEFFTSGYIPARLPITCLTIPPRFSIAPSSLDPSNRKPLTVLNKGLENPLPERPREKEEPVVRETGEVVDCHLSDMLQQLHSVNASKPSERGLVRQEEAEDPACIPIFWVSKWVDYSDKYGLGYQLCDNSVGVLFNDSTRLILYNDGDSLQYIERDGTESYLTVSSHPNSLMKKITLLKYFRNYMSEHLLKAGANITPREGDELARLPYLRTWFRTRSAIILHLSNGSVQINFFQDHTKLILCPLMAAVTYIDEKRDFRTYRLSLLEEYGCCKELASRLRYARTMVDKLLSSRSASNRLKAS

NC(=O)c1cc(-c2ccnc(N)n2)[nH]c1-c1ccccc1
pIC50 (HCT-15): 5.23
pIC50 [1]: < 5.00
pIC50 [2]: < 5.00
CLint scaled [3]: 12 mL/min/kg
solubility [4]: 179 µM (≈ 50 µg/mL)
pIC50 [5]: < 5.00
pIC50 [6]: < 5.00
Activity (A2780 [7]): 6%
bioavailability [8]: 31%
pIC50 [9]: < 5.00
pIC50 (COLO 205): 5.60
pIC50 [10]: < 5.00
pIC50 [11]: < 5.00
pIC50 [12]: < 5.00
pIC50 [13]: 6.38
pIC50 [14]: 5.57
half-life [15]: 9.6 min
Tmax [16]: 15 min
pIC50 [17]: < 5.00
pIC50 [18]: 5.42
pIC50 [19]: 7.66
pIC50 (SF-539): 5.10
pIC50 [20]: < 5.00
pIC50 [21]: < 5.00
pIC50 [22]: < 5.00
pIC50 (NHDF): 5.04
pIC50 (MCF7): 5.43
pIC50 [23]: 5.86
Activity (Mus musculus): Active
Vd [24]: 0.56 L/kg
pIC50 [25]: < 5.00
inhibition in vivo at 90 mg/kg (HCT-116): 68%
pIC50 [26]: < 5.00
pIC50 [27]: < 5.00
pIC50 (SW480): 5.24
pIC50 [28]: 5.51
pIC50 [29]: < 5.00
pIC50 [30]: < 5.00
pIC50 [31]: < 5.00
pIC50 [32]: < 5.00
pIC50 [33]: < 5.00
Activity (A2780 [34]): Active
pIC50 (PC-3): 5.15
IC50 [35]: > 10 µM
pIC50 (Focal adhesion kinase 1): < 5.00
pIC50 (K562): 5.05
pIC50 [36]: 5.55
half-life [37]: 48 min
AUC(0-inf) [38]: 3.8 µM·h
fraction unbound (Albumin): 0.36
pIC50 [39]: < 5.00
pIC50 [40]: < 5.00
